Measured values: publication PMC7794376 (Nature Communications, 2021)
Values after ≈ are worked out from the molar mass of the structure shown. Like-named read-outs stand apart in the source and are kept apart here.

Experiments:
MtbCoaBC [1] = target: T1, MtbCoaBC (Mycobacterium tuberculosis, UniProt P9WNZ1); assay: biochemical; assay type: biochemical; conditions: for activity at 0.03125 µM / activity at 0.0625 µM / activity at 0.25 µM / activity at 0.5 µM / activity at 1 µM / activity at 2 µM: relative to average DMSO CT; for Activity R1 / Activity R3: slope of absorbance at 360 nm vs time (s); for IC50: read-out: IC50 EnzChek MtbCoaBC
MtbCoaBC [2] = target: T1, MtbCoaBC; assay: High-throughput end-point pyrophosphate quantification assay (Biomol Green); assay type: biochemical; conditions: MtbCoaB activity; end-point, 2 µM CTP, 40 µM L-cysteine, 30 µM PPA; read-out: IC50 biomol green assay
M. tuberculosis H37Rv = assay: MIC determination in different media; assay type: cell-based; conditions: Mycobacterium tuberculosis, read-out: Minimum inhibitory concentration (MIC)
[3] = uM 1c 0.125 as printed, replicates R1-R3

T1 sequence (P9WNZ1 whole entry): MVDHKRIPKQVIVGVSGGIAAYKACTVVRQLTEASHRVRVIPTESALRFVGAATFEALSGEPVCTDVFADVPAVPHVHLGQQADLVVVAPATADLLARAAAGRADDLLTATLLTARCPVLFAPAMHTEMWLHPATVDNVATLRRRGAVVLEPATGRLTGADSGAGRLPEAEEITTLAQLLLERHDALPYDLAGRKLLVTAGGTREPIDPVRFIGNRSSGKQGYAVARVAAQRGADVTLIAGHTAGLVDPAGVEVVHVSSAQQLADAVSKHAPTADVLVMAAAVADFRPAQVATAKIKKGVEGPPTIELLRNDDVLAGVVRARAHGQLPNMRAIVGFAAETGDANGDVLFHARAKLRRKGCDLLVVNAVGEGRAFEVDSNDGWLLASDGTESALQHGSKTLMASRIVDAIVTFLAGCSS

Which inhibition at 0.03125 µM (MtbCoaBC [1]; 0.03125 uM 2e, replicate R1, read-out: Inhibition % R1) does the source give for `O=c1cc(-c2ccc(O)cc2)oc2c(O)c(O)ccc12` [2e] here?
The inhibition at 0.03125 µM was 5.66%.

And the activity at 0.03125 µM (MtbCoaBC [1]; 0.03125 uM 2e, replicate R1, read-out: Activity % R1)?
The activity at 0.03125 µM was 94.3%.

What about the “Activity R1” value (MtbCoaBC [1]; 0.03125 uM 2e, replicate R1) of the same compound?
The value was 0.0001715.

What about the inhibition at 0.03125 µM (MtbCoaBC [1]; 0.03125 uM 2e, replicate R2, read-out: Inhibition % R2) of the same compound?
Its inhibition at 0.03125 µM is 2.73%.

What about the activity at 0.03125 µM (MtbCoaBC [1]; 0.03125 uM 2e, replicate R2, read-out: Activity % R2) of the same compound?
Its activity at 0.03125 µM is 97.3%.

What about the inhibition at 0.03125 µM (MtbCoaBC [1]; 0.03125 uM 2e, replicate R3, read-out: Inhibition % R3) of the same compound?
Its inhibition at 0.03125 µM is 8.32%.

What about the activity at 0.03125 µM (MtbCoaBC [1]; 0.03125 uM 2e, replicate R3, read-out: Activity % R3) of the same compound?
Its activity at 0.03125 µM is 91.7%.

And the “Activity R3” value (MtbCoaBC [1]; 0.03125 uM 2e, replicate R3)?
Its value is 0.0001667.

And the inhibition at 0.0625 µM (MtbCoaBC [1]; 0.0625 uM 2e, replicate R1, read-out: Inhibition % R1)?
Its inhibition at 0.0625 µM is 10.7%.

And the activity at 0.0625 µM (MtbCoaBC [1]; 0.0625 uM 2e, replicate R1, read-out: Activity % R1)?
The activity at 0.0625 µM was 89.3%.

And the “Activity R1” value (MtbCoaBC [1]; 0.0625 uM 2e, replicate R1)?
Its value is 0.0001624.

And the inhibition at 0.0625 µM (MtbCoaBC [1]; 0.0625 uM 2e, replicate R2, read-out: Inhibition % R2)?
The inhibition at 0.0625 µM was 12.6%.

What about the activity at 0.0625 µM (MtbCoaBC [1]; 0.0625 uM 2e, replicate R2, read-out: Activity % R2) of the same compound?
Its activity at 0.0625 µM is 87.4%.

And the inhibition at 0.0625 µM (MtbCoaBC [1]; 0.0625 uM 2e, replicate R3, read-out: Inhibition % R3)?
Its inhibition at 0.0625 µM is 12.3%.

And the activity at 0.0625 µM (MtbCoaBC [1]; 0.0625 uM 2e, replicate R3, read-out: Activity % R3)?
Its activity at 0.0625 µM is 87.7%.

And the “Activity R3” value (MtbCoaBC [1]; 0.0625 uM 2e, replicate R3)?
Its value is 0.0001594.

What about the inhibition at 0.25 µM (MtbCoaBC [1]; 0.25 uM 2e, replicate R1, read-out: Inhibition % R1) of the same compound?
The inhibition at 0.25 µM was 38.7%.

And the activity at 0.25 µM (MtbCoaBC [1]; 0.25 uM 2e, replicate R1, read-out: Activity % R1)?
The activity at 0.25 µM was 61.3%.

What about the “Activity R1” value (MtbCoaBC [1]; 0.25 uM 2e, replicate R1) of the same compound?
The value was 0.0001114.

What about the inhibition at 0.25 µM (MtbCoaBC [1]; 0.25 uM 2e, replicate R2, read-out: Inhibition % R2) of the same compound?
The inhibition at 0.25 µM was 33.5%.

What about the activity at 0.25 µM (MtbCoaBC [1]; 0.25 uM 2e, replicate R2, read-out: Activity % R2) of the same compound?
The activity at 0.25 µM was 66.5%.

And the inhibition at 0.25 µM (MtbCoaBC [1]; 0.25 uM 2e, replicate R3, read-out: Inhibition % R3)?
The inhibition at 0.25 µM was 37.4%.

What about the activity at 0.25 µM (MtbCoaBC [1]; 0.25 uM 2e, replicate R3, read-out: Activity % R3) of the same compound?
Its activity at 0.25 µM is 62.6%.

What about the “Activity R3” value (MtbCoaBC [1]; 0.25 uM 2e, replicate R3) of the same compound?
Its value is 0.0001138.

And the inhibition at 0.5 µM (MtbCoaBC [1]; 0.5 uM 2e, replicate R1, read-out: Inhibition % R1)?
The inhibition at 0.5 µM was 54.7%.

And the activity at 0.5 µM (MtbCoaBC [1]; 0.5 uM 2e, replicate R1, read-out: Activity % R1)?
The activity at 0.5 µM was 45.3%.

What about the “Activity R1” value (MtbCoaBC [1]; 0.5 uM 2e, replicate R1) of the same compound?
The value was 0.000082371.

What about the inhibition at 0.5 µM (MtbCoaBC [1]; 0.5 uM 2e, replicate R2, read-out: Inhibition % R2) of the same compound?
The inhibition at 0.5 µM was 61.3%.

What about the activity at 0.5 µM (MtbCoaBC [1]; 0.5 uM 2e, replicate R2, read-out: Activity % R2) of the same compound?
The activity at 0.5 µM was 38.7%.

And the inhibition at 0.5 µM (MtbCoaBC [1]; 0.5 uM 2e, replicate R3, read-out: Inhibition % R3)?
Its inhibition at 0.5 µM is 57.9%.

What about the activity at 0.5 µM (MtbCoaBC [1]; 0.5 uM 2e, replicate R3, read-out: Activity % R3) of the same compound?
The activity at 0.5 µM was 42.1%.

What about the “Activity R3” value (MtbCoaBC [1]; 0.5 uM 2e, replicate R3) of the same compound?
Its value is 0.000076593.

And the inhibition at 1 µM (MtbCoaBC [1]; 1 uM 2e, replicate R1, read-out: Inhibition % R1)?
The inhibition at 1 µM was 69.6%.

And the activity at 1 µM (MtbCoaBC [1]; 1 uM 2e, replicate R1, read-out: Activity % R1)?
Its activity at 1 µM is 30.4%.

And the “Activity R1” value (MtbCoaBC [1]; 1 uM 2e, replicate R1)?
Its value is 0.000055348.

And the inhibition at 1 µM (MtbCoaBC [1]; 1 uM 2e, replicate R2, read-out: Inhibition % R2)?
The inhibition at 1 µM was 78.2%.

And the activity at 1 µM (MtbCoaBC [1]; 1 uM 2e, replicate R2, read-out: Activity % R2)?
The activity at 1 µM was 21.8%.

And the inhibition at 1 µM (MtbCoaBC [1]; 1 uM 2e, replicate R3, read-out: Inhibition % R3)?
Its inhibition at 1 µM is 75.2%.

What about the activity at 1 µM (MtbCoaBC [1]; 1 uM 2e, replicate R3, read-out: Activity % R3) of the same compound?
The activity at 1 µM was 24.8%.

What about the “Activity R3” value (MtbCoaBC [1]; 1 uM 2e, replicate R3) of the same compound?
Its value is 0.000045005.

What about the inhibition at 2 µM (MtbCoaBC [1]; 2 uM 2e, replicate R1, read-out: Inhibition % R1) of the same compound?
Its inhibition at 2 µM is 96.5%.

What about the activity at 2 µM (MtbCoaBC [1]; 2 uM 2e, replicate R1, read-out: Activity % R1) of the same compound?
Its activity at 2 µM is 3.46%.

What about the “Activity R1” value (MtbCoaBC [1]; 2 uM 2e, replicate R1) of the same compound?
Its value is 0.000006285.

What about the inhibition at 2 µM (MtbCoaBC [1]; 2 uM 2e, replicate R2, read-out: Inhibition % R2) of the same compound?
The inhibition at 2 µM was 91.3%.

And the activity at 2 µM (MtbCoaBC [1]; 2 uM 2e, replicate R2, read-out: Activity % R2)?
Its activity at 2 µM is 8.65%.

And the inhibition at 2 µM (MtbCoaBC [1]; 2 uM 2e, replicate R3, read-out: Inhibition % R3)?
Its inhibition at 2 µM is 93%.

What about the activity at 2 µM (MtbCoaBC [1]; 2 uM 2e, replicate R3, read-out: Activity % R3) of the same compound?
Its activity at 2 µM is 6.96%.

What about the “Activity R3” value (MtbCoaBC [1]; 2 uM 2e, replicate R3) of the same compound?
The value was 0.000012661.

And the IC50 (MtbCoaBC [1])?
The IC50 was 3 ± 0.2 µM.

What about the IC50 (MtbCoaBC [2]) of the same compound?
Its IC50 is 2.2 µM.

What about the MIC (M. tuberculosis H37Rv; 7H9/ADC/Glycerol) of the same compound?
Its MIC is > 250 µM.

And the MIC (M. tuberculosis H37Rv; GAST/Fe)?
The MIC was 125 µM (≈ 33.8 µg/mL).

What does the source list for `Oc1ccc(Cc2ccc(O)c(O)c2O)cc1` [compound 1c]?
IC50 (MtbCoaBC [1]): 4.6 ± 0.4 µM; remaining activity at 0.03125 µM (MtbCoaBC [1]; uM 1c 0.03125 as printed, replicates R1-R3): 94.6%; remaining activity at 0.0625 µM (MtbCoaBC [1]; uM 1c 0.0625 as printed, replicates R1-R3): 87.8%; inhibition at 0.0625 µM (MtbCoaBC [1]; uM 1c 0.0625 as printed, replicates R1-R3, read-out: Inhibition %): 17.8%; inhibition at […] (MtbCoaBC [1]; [3]): 29.1%; remaining activity at […] (MtbCoaBC [1]; [3]): 74.8%; remaining activity at 0.25 µM (MtbCoaBC [1]; uM 1c 0.25 as printed, replicates R1-R3): 65.6%; inhibition at 0.25 µM (MtbCoaBC [1]; uM 1c 0.25 as printed, replicates R1-R3, read-out: Inhibition %): 40.6%; remaining activity at 0.5 µM (MtbCoaBC [1]; uM 1c 0.5 as printed, replicates R1-R3): 40.9%; inhibition at 0.5 µM (MtbCoaBC [1]; uM 1c 0.5 as printed, replicates R1-R3, read-out: Inhibition %): 68.6%; inhibition at 1 µM (MtbCoaBC [1]; uM 1c 1 as printed, replicates R1-R3, read-out: Inhibition %): 89.7%; inhibition at 2 µM (MtbCoaBC [1]; uM 1c 2 as printed, replicates R1-R3, read-out: Inhibition %): 95%; IC50 (MtbCoaBC [2]): 4.7 µM; MIC (M. tuberculosis H37Rv; 7H9/ADC/Glycerol): > 250 µM; MIC (M. tuberculosis H37Rv; GAST/Fe): 125 µM (≈ 29 µg/mL)
